“Also recorded” adds a separate entry of the source.
Experiments:
[1] = Indirect calorimetry (Oxymax): VO2, VCO2, RER, heat, activity; assay type: in vivo, C57Bl/6 mice
Method: (§1) Each mouse was weighed weekly and the blood glucose levels assessed at random times every second week alternating with rectal temperatures. Intraperitoneal Glucose Tolerance Testing (IPGTT) was carried out at week 5 and 21 using 2g glucose/kg dose. Insulin Tolerance Testing (ITT) was carried at week 2 (0.33 U/kg) and week 6 (0.50 U/kg). Glucose Stimulated Insulin Secretion (GSIS)(3g glucose/kg) was studied out at week 7. Food intake studies were carried out at weeks 0, 4, 8 and 25. Indirect calorimetry was performed using the Oxymax System (Columbus Instruments, Columbus, Ohio) at weeks 0, 4, 8 and 25. Measurements were taken over a 12-hour light cycle and a 12-hour dark cycle.
Mice were placed with ad libitum food and water in separate chambers in an 8 chamber, indirect open circuit calorimeter (Columbus Oxymax Respirometer 0246-002M, Columbus Instruments Ohio USA) for 36-48 hours. This machine obtains periodic measurements of the percentage of oxygen and carbon dioxide in the test chamber. Changes in gas concentrations are used to calculate the rate of oxygen consumption (VO2) and carbon dioxide production (VCO2) per mouse, with a readout every 27 minutes (Oxymax Software 0246-102M). The software calculates heat production per mouse and the respiratory exchange ratio (RER) (VCO2/VO2) using VO2 and VCO2. Activity levels were simultaneously measured in 2 dimensions (Opto-M3 activity meter) using […] wavelength light beams. Ambulatory movements were registered when more than one light beams in the same axis were crossed by an animal in a given period of time. The last 24 hours of data were analysed to allow for an acclimatisation period.
The hourly mean VO2 and VCO2 (mL/hr/kg total body weight) were calculated by averaging the VO2 and VCO2 readings produced by the Oxymax software for each hour. VO2 and VCO2 per unit of lean body mass (VXX2LM) was calculated from the Oxymax results (VXX2) using the following equation: […]
The hourly mean RER and the total, light and dark RER were calculated in a similar manner to VO2 and VCO2. No adjustment for body weight was required.
Heat (total energy expenditure, kcal/hr/mouse) was calculated by the Oxymax software using the formula:
Heat=CV (calorific value)*VO2 where CV=3.815+(1.232*RER)
The hourly mean heat production and the total, light and dark heat production were calculated in a similar manner to VO2 and VCO2. Heat production per unit of lean body mass was calculated by dividing the Oxymax reading by unit of lean body mass.
To quantify activity levels, the total number of ambulatory movements in the x axis and the y axis was calculated per unit time for each mouse.
Oxymax data were analysed using t-tests.

[2] = Weight of visceral, white and brown adipose tissue; assay type: in vivo, C57Bl/6 mice; conditions: high fat diet, vs control mice
[3] = Body weight of mice on high fat diet with DFS; assay type: in vivo, C57Bl/6 mice; conditions: Studies 1-4, vs control mice, from about 3 to about 10 weeks after commencement
Method: Four studies were performed using C57Bl/6 mice. Study 1 included 30 control mice and 30 mice administered DFS. Study 2 included 30 control mice and 30 mice administered DFS. Study 3 included 8 control mice and 8 mice administered DFS. Study 4 included 18 control mice and 18 mice administered DFS. Mice in Study 3 differed to those in studies 1 and 2 in so far as they were sourced from different colonies.
Mice were randomly separated equally into a treatment group receiving Deferasirox (DFS) or a control group (CON). DFS was powdered using a mortar and pestle and mixed in thoroughly with the dry mineral mix prior to the addition of melted lard and then left to harden overnight in the refrigerator to form high-fat diet (HFD). From 6 weeks of age for up to 25 weeks, the mice were then fed ad libitum this HFD, from which 45% of their calories were derived from animal lard.
as §1, with “Indirect calorimetry was performed using the Oxymax System (Columbus Instruments, Columbus, Ohio) at weeks 0, 4, 8 and 25. Measurements were taken over a 12-hour light cycle and a 12-hour dark cycle.” left out

Food intake studies = assay type: in vivo, C57Bl/6 mice
Method: as §1

[4] = Body weight of ob/ob mice on chow diet with DFS; assay type: in vivo; conditions: vs control ob/ob mice
Method: Studies were also performed using ob/ob mice, in particular, 5 ob/ob controls and 5ob/ob mice administered DFS. Wild type C57bl/6 mice were also used as controls, 4 untreated and 4 administered DFS.

HIF-1α = test: Western blot of liver lysates for HIF-1α; assay type: in vivo, C57Bl/6 mice; conditions: vs control
Method: Fresh tissues were removed rapidly from culled animals and kept frozen in the −80° C. freezer. They were then homogenized in lysis buffer and sonicated in cold RIPA buffer ([…] pH 7.4, 1% NP40, 0.25% sodium deoxycholate, […], 1 mM EDTA, 1 mM PMSF and protease inhibitor cocktail). 121 μg of protein sample was resolved on an 8% SDS PAGE gel. Proteins were transferred onto nitrocellulose membrane. Primary antibodies (HIF-1α, and (β-tubulin) were prepared in milk buffers at concentrations of 1:500 and 1:2000 respectively and the membrane was incubated overnight at 4° C. Membranes were then rinsed with Phosphate Buffered Solution containing Tween and HRP-conjugated secondary antibodies (at 1:1000 dilution). Proteins were visualised using enhanced chemiluminescence.

[5] = Blood and liver safety parameters (haemoglobin, white blood counts, transaminases, serum iron); assay type: in vivo, C57Bl/6 mice; conditions: vs control mice
Method: (§2) Plasma insulin was measured with ELISA kits. Liver transaminases and plasma lipids were performed by Sydpath Pathology, St Vincent's Hospital. Liver triglycerides were extracted using methanol/chloroform 2:1 and detected using colorimetric assay.

Iron levels in the liver = assay type: in vivo, C57Bl/6 mice; conditions: vs CON mice, data not shown
Method: (§3) Mice livers were fixed in 10% buffered formaldehyde, embedded in paraffin and slides were prepared using standard haematoxylin and eosin as well as Perl staining to visualize hepatic iron.

[6] = tested on: AKT2, IRS1, IRS2, PFK, GLUT2, HSL, LPL; test: Liver gene expression by quantitative real-time PCR; assay type: in vivo, C57Bl/6 mice; conditions: vs control
Excerpt: Tissues were homogenized in extraction buffer and RNA was isolated according to the RNeasy Kit protocol. […] The level of mRNA for each gene was normalized to the level of TATA box binding-protein (TBP) mRNA in each sample.

Insulin tolerance test = assay type: in vivo, C57Bl/6 mice
Method: as §1
Mice were fasted overnight for 16 hours. Insulin was injected at 0.5 units per kg (diluted in 1× PBS with 1% bovine serum albumin) by intraperitoneal injection. Blood glucose was measured via glucometer prior to, and at 10, 20, 30, 45 and 60 minutes after the insulin injection.

[7] = HFD-induced hepatic lipid accumulation (steatosis); assay type: in vivo, C57Bl/6 mice; conditions: 10 weeks on HFD, vs CON mice, data not shown
Method: as §3, §2

[8] = Intraperitoneal glucose tolerance test; assay type: in vivo, C57Bl/6 mice; conditions: 2 g glucose/kg i.p., vs CON mice
Method: as §1
Mice were fasted overnight for 16 hours. Glucose was administered at a dose of 2g/kg by intraperitoneal injection in the form of a 20% dextrose solution. Blood glucose was measured via glucometer (Accucheck Advantage II, Roche, Australia) prior to, and at 15, 30, 60, 90 and 120 minutes after the dextrose injection.
Mice were fasted for 6 hours before intraperitoneal administration of glucose (2 g/kg dose) in sterile water. Blood glucose was measured by glucometer at the times indicated.

[9] = Blood glucose levels assessed at random times; assay type: in vivo, C57Bl/6 mice; conditions: over 9 weeks of high fat diet, vs CON mice
Method: as §1

[10] = Fasting plasma insulin and glucose stimulated insulin secretion (GSIS); assay type: in vivo, C57Bl/6 mice
Method: as §1, §2

## CC(=O)N(O)CCCCCNC(=O)CCC(=O)N(O)CCCCCNC(=O)CCC(=O)N(O)CCCCCN [DFO]
[1]; summary statement of the inventors' work
  metabolism in a subject: capable of increasing metabolism

## O=C(O)c1ccc(-n2nc(-c3ccccc3O)nc2-c2ccccc2O)cc1 [DFS, 4-[3,5-Bis (2-hydroxyphenyl)-1H-1,2,4-triazol-1-yl]-benzoic acid]
[2]
  weight of brown adipose tissue (BAT): unchanged
  weight of visceral adipose tissue (VAT): reduced; also recorded: significantly lighter
  weight of white adipose tissue (WAT): reduced; also recorded: significantly lighter
[3]
  body weight / weight gain: significantly reduced body weights; also recorded: decreases weight gain
Food intake studies; by 25 weeks, HFD, vs CON mice
  food consumed adjusted per body weight: eaten more HFD adjusted per body weight; also recorded: consumed significantly more food per gram of body weight
Food intake studies; week 0, vs CON animals
  feed intake: did not differ
[4]; ob/ob mice on chow diet, p<0.0005
  weight gained over an eight week period: significantly lower; also recorded: gained significantly less weight
[4]; ob/ob mice on normal chow diet
  body weight: reduced body weight (or reduced body weight increase)
HIF-1α
  level of HIF-1α relative to β-tubulin: increased HIF-1α; also recorded: higher levels of HIF-1α
[1]; after 8 weeks of high fat diet and DFS, vs control mice
  oxygen consumption (VO2): significantly increased; also recorded: consume significantly more oxygen than control mice
[1]; after 25 weeks of high fat diet and DFS, vs control mice
  oxygen consumption (VO2): significantly increased; also recorded: consume significantly more oxygen than control mice
[1]; high fat diet, vs control mice
  metabolic rate: significantly higher metabolic rate
  respiratory exchange ratio (RER) (VCO2/VO2): significantly reduced
[1]; over a day, high fat diet, vs control mice
  energy expenditure (EE) or heat production: significantly higher energy expenditure
[1]; week 0 (initial week of high fat diet and DFS), vs control mice
  oxygen consumption (VO2) / baseline metabolic rate: similar; also recorded: no significant difference
[1]; week 8 of continuous DFS treatment, vs control mice
  CO2 production: significantly increased
[1]; week 25 of continuous DFS treatment, vs control mice
  CO2 production: significantly increased
[5]
  haemoglobin levels / anaemia: does not result in anaemia; also recorded: No significant difference
  serum alanine transaminase levels: No significant difference
  serum aspartate aminotransferase levels: No significant difference
  serum iron levels: No significant difference
  significantly reduced liver function: does not result in
  white blood counts: No significant difference
Iron levels in the liver
  liver iron levels: lower iron levels
[6]; normalized to TBP mRNA
  AKT2 gene expression: significantly increased
  IRS1 gene expression: significantly increased; also recorded: increased expression
  IRS2 gene expression: significantly increased
  PFK gene expression: significantly increased
[6]
  GLUT2 expression: trend for improved
  hormone sensitive lipase (HSL) gene expression: significantly increased; also recorded: increased expression
  lipoprotein lipase (LPL) gene expression: significantly increased; also recorded: increased expression
Insulin tolerance test; following five weeks of high fat diet, vs CON mice
  insulin tolerance (ITT): performed significantly better; also recorded: significantly improved insulin tolerance
Insulin tolerance test; vs 38% of controls, p<0.001, indicating improved insulin sensitivity, data not shown
  proportion of animals with glucoses <2 mmol/L: About 80%
[7]
  macroscopic hepatic steatosis: relatively protected
[8]; 21 weeks of high fat diet
  glucose tolerance: continued beyond at least week 21; also recorded: significantly improved insulin tolerance
[8]; five weeks of high fat diet
  glucose tolerance: significantly better glucose tolerance; also recorded: significantly improved glucose tolerance
[9]
  blood glucose levels at random times: generally had lower blood glucose levels; also recorded: significantly lower blood glucose levels
[10]; high fat diet, p<0.005
  mean fasting insulin levels vs control: significantly lower
[10]; high fat diet, mean + SEM, p=0.005 vs control
  fasting insulin levels: 2837+874 pmol/L
[10]; week 7, 3 g glucose/kg, vs control
  glucose stimulated insulin secretion (GSIS) profile: better preservation
